# Legend:
# [1] = test system: TNFR; test: Receptor binding assay (TNFR), ELISA; conditions: peptide coated 50 μg/25 μl, O.D. 450 nm, positive control TNF-α
# [2] = test system: IL-8; test: IL-8 ELISA in THP-1 cells treated with TNF-α; format: cell-based, human; conditions: 10 μg/ml pre-treatment 30 minutes, 50 ng/ml TNF-α, 24 hours
# Procedure: (§1) The human monocytes, THP-1 cells were seeded on a 24-well plate at a density of 2×10^6 cells/well. After incubation overnight, the cells were pre-treated with the samples at 10 μg/ml for 30 minutes, and treated with 50 ng/ml TNF-α, followed by incubation for 24 hours. The cell incubation medium was obtained, followed by centrifugation at 13,000 rpm for 10 minutes at 4° C., and then the supernatant was separated. ELISA was carried out using IL-1b and IL-8 ELISA kit (R&D system).
# [3] = test system: human umbilical vein endothelial cells (HUVEC); test: Cell proliferation assay (SRB), HUVEC; format: cell-based; conditions: 1, 10 and 50 μg/ml, 72 hours
# Procedure: (§2) In order to observe the cell proliferation effect on human hair follicle dermal papilla cells, human hair follicle germinal matrix cells, and human umbilical vein endothelial cells, which are main hair cells, each type of cells were seeded on a 96-well plate at a density of 3×10^3 cells/well, followed by incubation under conditions of 37° C. and 5% CO2 for 24 hours. After the medium was exchanged with the same culture medium completely excluding serum, the cells were treated with the peptides at different concentrations (1 μg/ml, 10 μg/ml, and 50 μg/ml), followed by incubation under the same conditions for 72 hours. After the incubation supernatant was removed, the cells were immobilized using ethanol, and washed three times with phosphate buffer saline (PBS). The wash solution was removed, and the cells were stained through the treatment with colorimetric SRB solution. After the cells were sufficiently washed with 1% acetic acid, the cells were observed using a microscope to observe the state of living cells. The absorbance was read at UV light of 560 nm, thereby measuring the survival conditions of cells
# [4] = test system: IL-1β; test: IL-1β ELISA in THP-1 cells treated with TNF-α; format: cell-based, human; conditions: 10 μg/ml pre-treatment 30 minutes, 50 ng/ml TNF-α, 24 hours
# Procedure: as §1
# [5] = test system: β-catenin; test: Western blotting of cell signaling material, β-catenin; format: cell-based, human; conditions: HFDPC, 1 and 10 μg/ml, 30 minutes and 60 minutes
# Procedure: In order to observe the changes in the phosphorylation of ERK and the expression of PI3K, which are main signaling materials involved in cell proliferation in the human hair follicle dermal papilla cells, the cells were treated with the peptides of the present invention for 30 minutes and 60 minutes, and then subjected to western blotting using specific antibodies, thereby observing the pERK and PI3K changes. The test was carried out using anti-pERK antibody (Santa Cruz Biotechnology, USA) and anti-pPI3K antibody (Santa Cruz Biotechnology, USA).
# The cells were treated with the cell lysis buffer to obtain a lysate, followed by protein quantification, and then western blotting was performed with respect to Phospho-ERK (pERK), PI3K, and β-catenin.
# [6] = test system: KGF; test: Western blotting of hair growth protein KGF; format: cell-based, human; conditions: HFDPC, 0.1-50 μg/ml, 24 hours
# Procedure: In order to observe the changes in the expression of IGF1, KGF, and Wnt3a, which are proteins involved in the development of hair roots in the human hair follicle dermal papilla cells, the cells were treated with the peptides of the present invention for 24 hours, and then subjected to western blotting using specific antibodies, thereby observing the changes in hair growth-related proteins.
# The cells were stabilized by the incubation overnight, and then treated with the peptides at different concentrations (0.1-50 μg/ml) for 24 hours. The cells were treated with the cell lysis buffer to obtain a lysate, followed by protein quantification, and then western blotting was performed with respect to IGF-1, KGF, and Wnt3a.
# The test was carried out using anti-IGF-1 antibody (Santa Cruz Biotechnology, USA), anti-KGF antibody (Santa Cruz Biotechnology, USA), and anti-Wnt3a antibody (Santa Cruz Biotechnology, USA).
# [7] = target: T1, HGFR (Homo sapiens, UniProt P08581); test: Receptor binding assay (HGFR), ELISA; conditions: peptide coated 50 μg/25 μl, O.D. 450 nm
# T1 construct: purchased R&D Systems
# Procedure: On an ELISA plate, 50 μg/25 μl peptide and 25 μl of a coating buffer (20 mM sodium phosphate pH 9.6) were added and mixed, and then incubated at 4° C. overnight. After washing three times with PBST (300 μl), the blocking with 200 μl of a blocking buffer (3% BSA) was carried out at room temperature for 2 hours. After washing three times with PBST (300 μl), HGFR (R&D Systems) was added at 0.5 μg/1 ml per well, followed by incubation at room temperature for 2 hours. After washing three times with PBST (300 μl), anti-human IgG-HRP was diluted at 1:1,000, which was then added at 100 μl per well, followed by incubation at room temperature for 2 hours. After washing three times with PBST (300 μl), 100 μl of TMB solution was added, followed by color development. 50 μl of a stop solution (3 N H2SO4) was added to stop the reaction, and then the absorbance was read at O.D. 450 nm.
# [8] = test system: MC3T3-E1 cells; test: Alizarin red staining (mineralization) of MC3T3-E1 cells; format: cell-based, mouse; conditions: MC3T3-E1, 10 and 50 μg/ml, 14 days
# Procedure: Here, the medium exchange every three days and the treatment with the peptide were repeated (positive control: 30 ng/ml rhBMP2 (Cell signaling)). After the completion of the incubation, the plate well was washed two times with PBS, and the cells were immobilized by the treatment with 70% EtOH for 1 hour. Then, the cells were stained with 40 mM Alizarin red S (pH 4.2, Sigma Aldrich) for 10 minutes. The cells were treated with 10% cetyl pyridinium chloride (dissolved in 10 mM sodium phosphate (pH 7.0)) for 15 minutes, and then the absorbance was read at 560 nm using a spectrophotometer (SpectraMax, Molecular Devices).
# [9] = test system: human hair follicle germinal matrix cells (HFGMC); test: Cell proliferation assay (SRB), HFGMC; format: cell-based; conditions: 1, 10 and 50 μg/ml, 72 hours
# Procedure: as §2
# [10] = test system: bone sialoprotein (BSP); test: RT-PCR of osteogenic differentiation marker BSP; format: cell-based, mouse; conditions: MC3T3-E1, three days
# T1 sequence (P08581 25-1390): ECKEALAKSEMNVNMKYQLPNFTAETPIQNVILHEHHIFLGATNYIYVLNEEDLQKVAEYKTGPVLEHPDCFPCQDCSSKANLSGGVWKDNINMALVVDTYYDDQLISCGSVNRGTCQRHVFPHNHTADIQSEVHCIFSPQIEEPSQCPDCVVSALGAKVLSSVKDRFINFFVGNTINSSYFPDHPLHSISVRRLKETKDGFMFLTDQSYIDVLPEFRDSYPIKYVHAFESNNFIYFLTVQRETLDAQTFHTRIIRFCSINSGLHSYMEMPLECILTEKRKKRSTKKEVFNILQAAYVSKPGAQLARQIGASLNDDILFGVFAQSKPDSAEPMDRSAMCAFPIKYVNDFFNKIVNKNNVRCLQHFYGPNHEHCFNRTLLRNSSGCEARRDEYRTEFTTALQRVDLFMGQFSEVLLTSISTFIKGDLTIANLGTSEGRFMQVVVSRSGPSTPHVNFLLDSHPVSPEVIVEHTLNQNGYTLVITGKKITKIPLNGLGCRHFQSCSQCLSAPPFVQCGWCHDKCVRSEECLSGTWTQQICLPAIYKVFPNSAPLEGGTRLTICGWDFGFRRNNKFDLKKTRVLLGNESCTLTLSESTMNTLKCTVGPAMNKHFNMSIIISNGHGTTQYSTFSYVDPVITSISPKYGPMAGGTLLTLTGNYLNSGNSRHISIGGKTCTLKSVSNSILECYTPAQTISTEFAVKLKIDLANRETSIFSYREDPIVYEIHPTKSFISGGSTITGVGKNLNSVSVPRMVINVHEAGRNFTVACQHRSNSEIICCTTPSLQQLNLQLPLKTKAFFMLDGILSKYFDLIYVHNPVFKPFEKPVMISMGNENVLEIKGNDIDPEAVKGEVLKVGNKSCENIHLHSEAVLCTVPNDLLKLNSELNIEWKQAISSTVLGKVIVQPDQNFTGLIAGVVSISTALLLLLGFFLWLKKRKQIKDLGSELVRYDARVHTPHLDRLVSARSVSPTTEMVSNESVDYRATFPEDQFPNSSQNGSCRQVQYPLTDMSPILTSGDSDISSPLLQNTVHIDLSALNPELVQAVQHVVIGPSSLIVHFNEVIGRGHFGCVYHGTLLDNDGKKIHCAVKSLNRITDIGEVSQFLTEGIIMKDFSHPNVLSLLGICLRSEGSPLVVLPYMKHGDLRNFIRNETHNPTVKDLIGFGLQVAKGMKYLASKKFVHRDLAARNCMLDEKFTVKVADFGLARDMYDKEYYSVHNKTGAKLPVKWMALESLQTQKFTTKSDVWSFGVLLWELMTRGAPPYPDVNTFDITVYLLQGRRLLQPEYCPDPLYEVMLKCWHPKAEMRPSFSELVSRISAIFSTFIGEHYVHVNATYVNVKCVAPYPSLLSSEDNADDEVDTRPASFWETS
substance,measurement,setting,value
NH2-Ala-Cys-Arg-Ser-Ala-Ile-Gly-Arg-Pro-Cys-COOH (H-ACRSAIGRPC-OH; cysteine pairing not given here) [SEQ ID NO: 1],binding affinity to TNFR,[1],high binding affinity
same,expression of IL-8 increased by TNF-α treatment,[2],inhibited
same,"cell proliferation, HUVEC",[3],increased in a concentration-dependent manner
same,expression of IL-1β increased by TNF-α treatment,[4],inhibited
same,expression of β-catenin,[5],increased
same,expression of KGF,[6],increased
same,binding affinity on HGFR,[7],high binding affinity
same,mineralization (Alizarin red staining),[8],increased
same,"cell proliferation, HFGMC",[9],increased in a concentration-dependent manner
same,expression of bone sialoprotein (BSP),[10],increased

# From patent US10238710B2, “Peptide having anti-inflammatory, osteogenic and hair growth promoting activities, and use of same” (CAREGEN CO., LTD., priority 2014, dated 2019)
